Measured values reported in PMC8280112, “Substrate reduction therapy for Krabbe disease and metachromatic leukodystrophy using a novel ceramide galactosyltransferase inhibitor” (Scientific Reports, 2021).

Legend:
[1] = test system: wild-type C57BL/6 mice; test: PND3 wild-type mouse repeat dose study: tolerability; assay type: in vivo
[2] = test system: Twitcher mice; test: Twitcher mouse survival; assay type: in vivo; settings: for median survival: IP three times per week
Procedure: Mice heterozygous for the Twitcher mutation on the congenic C57BL/6 background were originally purchased from The Jackson Laboratories (stock #000845). Homozygous GALC −/− animals were generated from heterozygous mating. Genotypes were determined on PND1 by PCR as previously described[43],[44]. Animals that died prior to weaning on PND28 were excluded from the study unless otherwise noted. Animals were euthanized when they became moribund as defined by any of the following: losing 25% of their maximal body weight, ataxia severe enough to impair ability to eat or drink, or lack of response to tactile stimulus. Animals used for tissue collection were euthanized by anesthetic overdose and perfused transcardially with PBS for three min. Animals for lifespan analysis were euthanized using CO2 compressed gas delivered at 10–30% chamber volume displacement per min. […] Tissues were harvested and flash frozen in liquid nitrogen.

[3] = target: T1, Recombinant human galactosylceramidase (GALC) (Homo sapiens, UniProt P54803); test: Galactosylceramidase assay; assay type: biochemical
T1 construct: purchased R&D Systems
T1 sequence (P54803 43-685): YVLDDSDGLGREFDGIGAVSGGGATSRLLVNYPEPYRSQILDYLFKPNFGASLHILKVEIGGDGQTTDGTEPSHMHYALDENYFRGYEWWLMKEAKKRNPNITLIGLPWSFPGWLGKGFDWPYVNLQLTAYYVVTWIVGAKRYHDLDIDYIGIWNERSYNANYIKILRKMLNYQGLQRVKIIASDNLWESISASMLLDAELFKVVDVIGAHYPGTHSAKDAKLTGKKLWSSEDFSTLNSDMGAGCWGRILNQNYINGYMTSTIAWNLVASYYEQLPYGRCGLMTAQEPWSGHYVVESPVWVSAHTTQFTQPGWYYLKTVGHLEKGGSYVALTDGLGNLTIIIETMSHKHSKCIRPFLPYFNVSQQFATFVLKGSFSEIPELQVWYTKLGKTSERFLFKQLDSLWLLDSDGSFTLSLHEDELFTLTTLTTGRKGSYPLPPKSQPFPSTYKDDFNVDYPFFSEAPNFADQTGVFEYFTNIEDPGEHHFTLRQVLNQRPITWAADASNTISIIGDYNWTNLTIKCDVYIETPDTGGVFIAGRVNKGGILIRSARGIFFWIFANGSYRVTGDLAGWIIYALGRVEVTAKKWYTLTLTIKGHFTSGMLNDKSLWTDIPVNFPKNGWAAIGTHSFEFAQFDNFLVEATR
Text: Recombinant human galactosylceramidase (R&D Systems) activity was monitored using the artificial fluorescent substrate 4-methylumbelliferyl-β-D-galactopyranoside (Sigma) using the assay conditions described on the enzyme product datasheet.

[4] = target: T2, Cerebroside sulfotransferase (CST) (Homo sapiens, UniProt Q99999); test: Cerebroside sulfotransferase assay; assay type: biochemical; settings: lysate of CHO cells expressing GAL3ST1
T2 construct: made in house; host or cells: CHO cells stably expressing GAL3ST1 cDNA; MPER lysate
T2 sequence (Q99999 1-423): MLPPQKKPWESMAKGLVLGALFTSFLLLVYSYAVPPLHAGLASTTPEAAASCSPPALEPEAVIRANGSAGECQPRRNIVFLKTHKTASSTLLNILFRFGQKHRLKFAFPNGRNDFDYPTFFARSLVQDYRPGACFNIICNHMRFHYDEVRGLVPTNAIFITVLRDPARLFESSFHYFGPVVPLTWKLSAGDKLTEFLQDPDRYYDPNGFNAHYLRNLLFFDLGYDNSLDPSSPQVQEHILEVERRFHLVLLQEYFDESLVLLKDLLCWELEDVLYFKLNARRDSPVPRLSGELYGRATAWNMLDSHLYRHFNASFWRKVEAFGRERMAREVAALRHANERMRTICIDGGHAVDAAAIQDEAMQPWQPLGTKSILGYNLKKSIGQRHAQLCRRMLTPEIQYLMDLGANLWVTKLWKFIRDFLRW
Procedure: A 50 µL reaction consisting of 4 µg MPER lysate prepared from CHO cells stably expressing GAL3ST1 cDNA construct (made by BioMarin), 3 µM N-dodecanoyl-NBD-galactosylceramide […] 10 µM PAPS (Sigma) added as substrate (in DMSO/Tween 80), reaction buffer (100 mM Tris/HCl (pH 7.0), 2.5 mM ATP, 20 mM MgCl2), and test compound. The reaction was incubated at 37 ℃ for 2 h then stopped with 100 µL of 3:1 methanol:acetonitrile (containing 500 nM NBD-C6-OH ceramide as an IS). After 1 h shaking, 150 µL 1:2 H2O:ACN was added, mixed, and centrifuged 4000 rpm for 30 min at RT. Supernatant was transferred for LC–MS analysis using the same conditions used for the CGT cellular assay.

C[C@H]1N(c2ccc(Br)cc2)C(=O)N(c2ccc(Br)cc2)C1(O)c1cccc(OC(F)(F)F)c1 (stereo partly shown) [S202]
phenotypes ([1]; daily IP PND3 to PND40, above 0.5 mg/kg): reduced weight gain, mild hind limb gait abnormalities, and some animal deaths
tolerability ([1]; daily IP PND3 to PND40, lower doses): well tolerated at lower doses
median survival ([2]; PND3 start, 0.15 mg/kg): 60 days
median survival ([2]; PND15 start, 5.0 mg/kg): ~ 63 days
effect on lifespan ([2]; PND3 start, highest dose tested (1.5 mg/kg)): reduced lifespan
IC50 [3]: > 50 µM
IC50 [4]: > 50 µM
